Source: patent US9018171B2, “Uses of an immunomodulatory protein (GMI) from Ganoderma microsporum” (Mycomagic Biotechnology Co., Ltd., priority 2010, dated 2015)

Tests used:
A549 = test: MTT assay, drug sensitivity; assay type: cell-based, human; settings: for IC50: Homo sapiens, A549, 48 h, MTT
Method: (§1) A549 cell line and resistant A549 cell sublines (A549/D16, A549/D32 and A549/V16) (5000 cells/well of 96-well plate) were treated with increased doses concentrations (μM) of GMI from Ganoderma microsporum, docetaxel, vincristine and doxorubicin for 48 h, respectively. Cell viability was measured by MTT assay and the results are presented as the calculated cell growth inhibitory ratio. Experiments were repeated three times.

A549/V16 = test: MTT assay, drug sensitivity; assay type: cell-based, human; settings: for value in parentheses after IC50 (ratio to parental A549): A549/V16; for IC50: Homo sapiens, A549/V16, 48 h, MTT
Method: as §1

A549/D32 = test: MTT assay, drug sensitivity; assay type: cell-based, human; settings: for value in parentheses after IC50 (ratio to parental A549): A549/D32; for IC50: Homo sapiens, A549/D32, 48 h, MTT
Method: as §1

A549/D16 = test: MTT assay, drug sensitivity; assay type: cell-based, human; settings: for value in parentheses after IC50 (ratio to parental A549): A549/D16; for IC50: Homo sapiens, A549/D16, 48 h, MTT
Method: as §1

CaLu-1 cells = test: MTT assay, cisplatin and GMI co-treatment; assay type: cell-based; settings: CaLu-1, 48 h, read-out: cisplatin alone concentration needed to achieve about 50% cell viability
Method: CaLu-1 cells were co-treated with various concentrations of cisplatin (0, 2.5, 5, 10, 20 μM) and GMI from Ganoderma microsporum (0, 4, 8 and 16 μg/mL) for 48 h followed by MTT assay to estimate cell viability.
MTT assay was used to determine the effect of GMI and cisplatin on the proliferation of Calu-1 cells. In metabolically active cells, MTT (Thiazolyl Blue Tetrazolium Bromide) (Sigma) was reduced by dehydrogenase enzyme into an formazan product. Absorbance was measured directly at 570 nm from 96-well assay plates after adding 100 μl DMSO. The quantity of formazan was considered to be directly proportional to the number of viable cells in the culture.
Briefly, the cells (5×10^3) were incubated on 96-well plates containing 200 μl of growth medium. After 24 h incubation, the medium was carefully removed and 100 μl of fresh medium containing various concentrations of GMI and cisplatin were added to the wells. The cells were treated with GMI and cisplatin continuously for 48 h with 0, 4, 8, 16 μg/ml for GMI and with 0, 2.5, 5 and 10 μM for cisplatin. […] The absorbance was analyzed on a VERSAmax microplate reader at 570 nm. Absorbance values were presented as the mean±SE of 3 replicates for each treatment. […] Absorbance of untreated cells was considered 100%. […]

EGFR = test: Western blotting, EGF-induced phosphorylation; assay type: cell-based, human; settings: A549 cells, pretreated 8 h, EGF 10 minutes
Method: A549 cells (5×10^5 cells/60 mm) were pretreated with various concentrations of GMI (4, 16 μg/ml) or AG1478 (EGFR inhibitors) for 8 hours prior to incubation for 10 minutes with EGF (as indicated). Cell lysates were subject to immunoblotting with phospho-specific EGFR (Y1068) (A and B), anti-phospho-AKT (A), anti-AKT (A), anti-phospho-GSK3β (A) or anti-phospho-STAT3 antibodies (B). Protein loading was determined by Western blotting against β-actin (A and B).
Total cell lysates were prepared in RIPA buffer (100 μl in 60 mm in dish). Fifty μg of lysate were loaded onto an 8% polyacrylamide gel and analyzed by SDS gel electrophoresis. After transfer to PVDF (Amersham), blots were blocked with 5% skim milk in TBS (10 mM Tris-CL pH7.5, 150 mM NaCl) containing 0.2% Tween-20. Blots were probed with antibodies (at their recommended dilutions) in 5% skim milk in TBS overnight at 4° C. Following detection with the appropriate horseradish-peroxidase conjugated secondary antibody (Cell Signaling), blots were developed by enhanced chemiluminescence according to the manufacturer's directions (Perkin Elmer Life Sciences). All experiments were performed in duplicate.
To assess whether GMI mediates and/or inhibits phosphorylation of Akt and Stat3, the invention investigated the effect of GMI on the phosphorylation status of Akt and Stat3 in A549 cells treated with various concentrations of GMI for 8 h.

IC50 (A549)	IC50 (A549/V16)	IC50 (A549/D32)	IC50 (A549/D16)	SMILES	value in parentheses after IC50 (ratio to parental A549) (A549)	value in parentheses after IC50 (ratio to parental A549) (A549/V16)	value in parentheses after IC50 (ratio to parental A549) (A549/D32)	value in parentheses after IC50 (ratio to parental A549) (A549/D16)	IC50 (CaLu-1 cells)	EGF-induced activation (phosphorylation) of EGFR (EGFR)
6.4 ± 0.1 nM	780 ± 51.3 nM	2040 ± 955 nM	730 ± 56.6 nM	CC(=O)O[C@@]12CO[C@@H]1C[C@H](O)[C@@]1(C)C(=O)[C@H](O)C3=C(C)[C@@H](OC(=O)[C@H](O)[C@@H](NC(=O)OC(C)(C)C)c4ccccc4)C[C@@](O)([C@@H](OC(=O)c4ccccc4)[C@H]21)C3(C)C [Docetaxel]	1.0	121.9	318.0	114.1		
223 ± 23.2 nM	1530 ± 80.8 nM	7690 ± 148 nM	3420 ± 152 nM	COc1cccc2c1C(=O)c1c(O)c3c(c(O)c1C2=O)C[C@@](O)(C(=O)CO)C[C@@H]3O[C@H]1C[C@H](N)[C@H](O)[C@H](C)O1 [Doxorubicin]	1.0	6.9	34.6	15.4		
14.9 ± 0.1 nM	760 ± 92.4 nM	730 ± 28.3 nM	770 ± 56.6 nM	CC[C@]1(O)C[C@H]2CN(CCc3c([nH]c4ccccc34)[C@@](C(=O)OC)(c3cc4c(cc3OC)N(C=O)[C@H]3[C@@](O)(C(=O)OC)[C@H](OC(C)=O)[C@]5(CC)C=CCN6CC[C@]43[C@@H]65)C2)C1 [Vincristine]	1.0	51.2	49.2	51.9		

The next lines start with the molecule.

SMILES	IC50 (A549)	IC50 (A549/V16)	IC50 (A549/D32)	IC50 (A549/D16)	value in parentheses after IC50 (ratio to parental A549) (A549)	value in parentheses after IC50 (ratio to parental A549) (A549/V16)	value in parentheses after IC50 (ratio to parental A549) (A549/D32)	value in parentheses after IC50 (ratio to parental A549) (A549/D16)	IC50 (CaLu-1 cells)	EGF-induced activation (phosphorylation) of EGFR (EGFR)
N.N.[Cl][Pt][Cl] [cisplatin]									~10000 nM	
COc1cc2ncnc(Nc3cccc(Cl)c3)c2cc1OC [AG1478, reference compound]										able to inhibit EGFR phosphorylation
